Entries after “also recorded” stand apart in the source; their conditions may differ. Structures can show the parent of a compound that is named as a salt.

Series [1] concerns the target full-length USP7 (Homo sapiens (Human), UniProt Q93009). In words: Enzymatic assay to determine IC50 of USP7 inhibitors (Ubiquitin-Rhodamine 110 cleavage). In kind it is biochemical. The following applies: for IC50: 0.5 nM USP7, 0.5 μM Ubiquitin-Rhodamine 110, 45 min at 37° C. Put shortly: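 Enzyme: 0.5 nM full-length USP7 in HEPES pH 7.5 buffer with NaCl, DTT, BSA and Tween20, given 15 min at room temperature with DTT before compounds were added.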

Series [2] deals with CD4+ T cells. In words: In vivo and ex vivo immunomodulatory effect in BALB/c mice (splenic CD4+ T cells). It counts as cell-based. The procedure:
BALB/c mice (10-week-old females, n=3) were administered with Example 77 at 200 mg/kg (BID) by oral gavage for 3 consecutive days. Untreated mice were used as the control group (n=3). Animals were sacrificed 16 hours following the last dosing. The spleens were collected and total CD4^+ lymphocytes were isolated by bead-based negative separation according to the manufacturers manual (EasySep™ Mouse CD4+ T cell Isolation Kit, StemCell; Cat. #19852). The purity of splenic CD4^+ T cells exceeded 95%, as confirmed by flow cytometric analysis following staining with anti-mouse CD3 and CD4 antibodies. Isolated CD4^+ T cells were seeded in triplicates (50 000 cells/well in RPMI full medium) on 96-well U-bottom plate covered with 1 μg/mL anti-CD3 and 1 μg/mL anti-CD28 antibodies (for stimulation and activation of cells). Following one hour preincubation in 37° C. degree, CD4^+ T cells were treated with 2 μM of Example 77, the final concentration of DMSO in wells was 0.03%. After 72 h lymphocytes activation was evaluated by testing viability, cytotoxicity and cytokine release: mTNF-α and mIFN-γ.
• 1. ATP level in cell lysates (CellTiterGlo Viability Assay, Promega) • 2. Lactate dehydrogenase (LDH) level in cell culture medium (LDH-Glo Cytotoxicity Assay, Promega) • 3. Cell counting (Fluorescence staining, Luna automated cell counter, Logos Biosystems) • 4. mTNF-α in supernatants by ELISA • 5. mIFN-γ in supernatants by ELISA

The subject of series [3] is CT26 model of colon carcinoma. In words: Antitumor efficacy in the subcutaneous CT26 syngeneic model of colon carcinoma.
Description: The 7-8-week old BALB/c females (BALB/cAnNCrl, Charles River Laboratories) were injected subcutaneously in the right flank with 5×10^5 CT26 cells. USP7 inhibitors were dosed by oral gavage twice per day at indicated doses starting from 2-5 days after the tumor implantation. […] Tumor volume was estimated by a formula: width×length×depth×π/6.
The test system of series [4] is CT26 cells. In words: Killing assay: splenocytes of tumor-bearing mice co-cultured with CT26 cells. The note with it: co-culture with CT26 cells 1:10 and 1:50, 36 h. It counts as cell-based, mouse. The procedure: To investigate the killing capability of T cells the splenocytes were isolated from tumor-bearing mice treated and untreated with different concentrations of Example 77. CT26 cells were seeded and stained with Green Cell Tracker. Stained CT26 cells were co-cultured with splenocytes from experimental animals in two ratios 1:10 and 1:50. After 36 h cells were harvested and analyzed on the flow cytometer.

A short description of series [5]: Immunomodulatory effect on isolated, anti-CD3/anti-CD28 activated CD4+ T cells from C57BL/6 mice. The following applies: C57BL/6; activated mouse CD4+ T cells, 72 h; read-out: cytotoxicity IC50 (cell viability, CellTiter Glo Assay). In kind it is cell-based. The text has this:
(§1) Splenocytes from three C57BL/6 mice donors were isolated separately. Next, specific CD4^+ cells were extracted from all splenocytes with EasySep™ Mouse CD4^+ T cell Isolation Kit by negative selection (StemCell; Cat. #19852). The purity of splenic CD4^+ T cells exceeded 95%, as confirmed by flow cytometric analysis following staining with anti-mouse CD3 and CD4 antibodies. Pure CD4^+ cells were subsequently seeded in RPMI full medium (50 000 cells/well) on 96-well U-bottom plate covered with 1 μg/mL antiCD3 and 1 μg/mL antiCD28 (for stimulation and activation). Then. […] The final concentration of DMSO in wells was 0.03%. After 72 h, lymphocyte activation was evaluated by counting, testing viability (LDH Assay, CellTiter Glo Assay) and cytokine. Statistical significance of observed effects was determined based on mean values calculated from technical replicates for each mouse (n=9; experiment was performed three times). • 1. ATP level in cell lysates (CellTiterGlo Viability Assay. Promega;) • 2. LDH level in cell culture medium • 3. Cell counting (Orange-Acridine staining, Luna automated cell counter, Logos Biosystems) • 4. mTNF-α in supernatants (ELISA) • 5. mIFN-γ in supernatants (ELISA) • 6. Magpix Luminex (T-Cells Panel: GM-CSF, IFN-γ, IL-10 TNF-α)
A general note: Cellular ATP, detected with luciferase, serves as a proxy for viable cell number.

Series [6] concerns CD4+ T cells. Described as above. In kind it is cell-based.
From the text: as §1

Series [7] relates to mouse CD8+ T cells. In words: Cytotoxic effect on mouse CD8+ T cells (splenocytes, flow cytometry). It counts as cell-based. The note with it: 24 hours of incubation. The procedure:
In these experiments, the mouse splenocytes were seeded into in 24-well plate and after 24 hours of incubation with USP7 inhibitors the T cells viability was analyzed with flow cytometry. […] Mann-Whitney test.
A general note: Flow cytometry measures light scatter and fluorescence of single cells or particles in a stream.

Where [8] appears, read: 2 μM, 72 h, LDH-Glo cytotoxicity assay.
The mark [9] stands for this setting: 0.5-2.5 μM, 72 h, ELISA / Magpix Luminex.
Setting [10] is: 0.5-2.5 μM, 72 h, Magpix Luminex.

Sequence of full-length USP7 (Q93009 whole entry): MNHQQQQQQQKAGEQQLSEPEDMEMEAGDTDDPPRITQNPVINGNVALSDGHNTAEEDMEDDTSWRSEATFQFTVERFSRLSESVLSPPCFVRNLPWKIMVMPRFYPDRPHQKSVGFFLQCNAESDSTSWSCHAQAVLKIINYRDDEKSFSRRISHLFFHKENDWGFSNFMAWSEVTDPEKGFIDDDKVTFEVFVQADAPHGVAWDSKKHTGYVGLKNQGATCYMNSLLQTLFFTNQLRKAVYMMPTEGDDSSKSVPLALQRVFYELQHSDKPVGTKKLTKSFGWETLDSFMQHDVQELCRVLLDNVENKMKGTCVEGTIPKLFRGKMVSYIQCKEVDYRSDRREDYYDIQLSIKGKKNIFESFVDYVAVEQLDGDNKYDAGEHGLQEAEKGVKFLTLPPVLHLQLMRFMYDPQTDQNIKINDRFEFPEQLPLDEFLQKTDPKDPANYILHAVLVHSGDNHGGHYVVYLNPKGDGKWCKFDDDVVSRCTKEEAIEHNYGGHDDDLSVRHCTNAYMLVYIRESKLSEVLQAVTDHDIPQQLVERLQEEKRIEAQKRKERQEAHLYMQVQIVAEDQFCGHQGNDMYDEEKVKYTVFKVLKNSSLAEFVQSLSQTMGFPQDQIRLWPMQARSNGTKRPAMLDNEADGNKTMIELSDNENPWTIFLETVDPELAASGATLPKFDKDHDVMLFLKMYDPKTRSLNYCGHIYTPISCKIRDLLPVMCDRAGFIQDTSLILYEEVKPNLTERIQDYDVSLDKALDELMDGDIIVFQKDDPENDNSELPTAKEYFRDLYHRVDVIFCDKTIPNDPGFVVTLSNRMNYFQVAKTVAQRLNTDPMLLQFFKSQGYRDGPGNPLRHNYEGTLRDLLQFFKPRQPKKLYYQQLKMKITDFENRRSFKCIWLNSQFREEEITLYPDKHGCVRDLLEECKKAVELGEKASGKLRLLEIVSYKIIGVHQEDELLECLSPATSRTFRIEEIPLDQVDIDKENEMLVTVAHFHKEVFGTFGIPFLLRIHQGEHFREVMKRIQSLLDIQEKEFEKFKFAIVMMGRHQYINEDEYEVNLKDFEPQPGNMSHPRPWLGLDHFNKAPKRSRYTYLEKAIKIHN

For orientation: IC50 means the concentration that inhibits the measured activity by half. What is called TGI is how far tumour growth fell short of that in controls. Molecule `CN[C@H]1CCN(C(=O)c2c(C)cc(C(F)(F)F)nc2-c2ccnc3cc(CN4C(=O)C5C(C4=O)C5(C)C)sc23)C1.Cl.Cl` (stereo partly drawn) [Example 77, 6,6-dimethyl-3-((7-(4-methyl-3-((S)-3-(methylamino)pyrrolidine-1-carbonyl)-6-(trifluoromethyl)pyridin-2-yl)thieno[3,2-b]pyridin-2-yl)methyl)-3-azabicyclo[3.1.0]hexane-2,4-dione dihydrochloride] showed an IC50 in series [1] of under 0.5 µM. For the same molecule, the “pro-inflammatory cytokines release after additional ex vivo treatment of isolated T-cells” value in series [2] (2 μM ex vivo, 72 h) is reported as “additionally increases”. For the same molecule, in series [2] (2 μM, 72 h), the “total ATP level (CellTiter Glo Assay)” value is on record as “didn't affect”. Besides, in series [2] (2 μM, 72 h, ELISA), the “CD4+ T cells activation and pro-inflammatory cytokines release: TNF-α and IFN-γ” value is “does not affect”. Also, in series [2] (setting [8]), the “LDH concentration in the culture medium vs. positive control” value was at most 5% and the “cytotoxicity for CD4+ T-cells” value is given as “not cytotoxic”. Besides, the T cells viability entry in series [2] (CD4+ T cells, 2 μM, 72 h) is “does not affect”. In addition, the “ex vivo pro-inflammatory cytokine release of activated CD4+ T cells from treated mice vs. control mice” value in series [2] (mice dosed 200 mg/kg BID by oral gavage for 3 days) is given as “much more”. Moreover, in series [3] (100 mg/kg PO BID, anti-PD-1 combination experiment), the TGI turned out to be 69%. Also, the “increase in survival time vs. anti-PD-1 monotherapy group” value in series [3] (100 mg/kg PO BID, log-rank test) is listed as 26%. The “percent of CD8+ T cells in tumor” value in series [3] (100 mg/kg, cytometric analysis) was “increase”. In addition, the “interferon-γ production in CD8+ T cells” value in series [3] (100 mg/kg, data not shown) was “enhanced amounts”. The “granzyme B production in CD8+ T cells” value in series [3] (100 mg/kg, flow cytometry) is reported as “enhanced amounts”. Also, the “antitumor effect after injection of CD8-depleting anti-CD8 antibodies” value in series [3] (anti-CD8 antibody 100 μg intraperitoneally on days 1, 7 and 14, dihydrochloride) is reported as “completely abrogated; also recorded: requires CD8+ T cells”. For the same molecule, in series [3] (combination with anti-PD-1 antibody, dihydrochloride), the “effect on the therapeutic effect of anti-PD-1 antibody” value is “potentiated; also recorded: increases the efficiency”. Also, the “tumor growth inhibition (TGI)” value in series [3] (dose-dependent, oral gavage BID, day 20 post-inoculation, p=0.048) was “up to 67%”. For the same molecule, in series [3] (survival analysis, anti-PD-1 combination experiment), the survival time is recorded as 29 days. In addition, the “killing capability of splenocytes from treated CT26-bearing mice vs. control mice” value in series [4] is “enhanced killing capability”. In addition, the IC50 at 72 h in series [5] was about 9 µM. Besides, in series [6] (setting [9]), the “IFNg level in supernatants” value is recorded as “Statistically significant increase” and the “TNFa level in supernatants” value is “not affected”. Besides, in series [6] (setting [10]), the “GM-CSF level in supernatants” value is “Statistically significant increase” and the “IL-10 level in supernatants” value was “not affected”. Further, in series [6] (CellTiter Glo Assay, head to head), the “times less cytotoxic than the reference RAPT compound” value is 10. For the same molecule, the “viability by cell counting (Luna cell counter, trypan blue)” value in series [6] (after 72 h of incubation) is “comparable to that obtained with CellTiter Glo”. Besides, in series [6] (low concentration (0.5-2.5 μM)), the “CD4+ T cells activation and pro-inflammatory cytokine release” value was “does not disturb”. The “cytotoxicity to CD8 T cells” value in series [7] is “limited”.

The molecule `Cc1nc(C#N)cc(-c2ccnc3cc(CN4C(=O)C5C(C4=O)C5(C)C)sc23)c1NC(=O)C1CNC1` (stereo not shown) [Example 30, N-(6-cyano-4-(2-((6,6-dimethyl-2,4-dioxo-3-azabicyclo[3.1.0]hexan-3-yl)methyl)thieno[3,2-b]pyridin-7-yl)-2-methylpyridin-3-yl)azetidine-3-carboxamide 2,2,2-trifluoroacetate] showed a half-inhibitory concentration (IC50) in series [1] of under 0.5 µM.

Molecule `Cc1c([N+](=O)[O-])cc(-c2ccnc3cc(CN4C(=O)C5C(C4=O)C5(C)C)sc23)n1C[C@H]1CNCCO1` (stereo partly drawn) [Example 167, 6,6-dimethyl-3-((7-(5-methyl-1-(((R)-morpholin-2-yl)methyl)-4-nitro-1H-pyrrol-2-yl)thieno[3,2-b]pyridin-2-yl)methyl)-3-azabicyclo[3.1.0]hexane-2,4-dione hydrochloride] yielded an IC50 in series [1] of under 0.5 µM.

In turn, `Cc1nc(C(F)(F)F)cc(-c2ccnc3cc(CN4C(=O)C5C(C4=O)C5(C)C)sc23)c1NC(=O)C1CC(F)(F)C1` (stereo not shown) [Example 86, N-(4-(2-((6,6-dimethyl-2,4-dioxo-3-azabicyclo[3.1.0]hexan-3-yl)methyl)thieno[3,2-b]pyridin-7-yl)-2-methyl-6-(trifluoromethyl)pyridin-3-yl)-3,3-difluorocyclobutane-1-carboxamide hydrochloride] registered an IC50 in series [1] of over 10 µM.

As usually defined, the inhibition is the percentage by which the read-out fell short of the control. As to `CC1(C)C2C(=O)N(Cc3cc4nccc(-c5cc(C(F)(F)F)cnc5CC5NCCNC5=O)c4s3)C(=O)C21` (stereo not shown) [Example 166, 6,6-dimethyl-3-((7-(2-((3-oxopiperazin-2-yl)methyl)-5-(trifluoromethyl)pyridin-3-yl)thieno[3,2-b]pyridin-2-yl)methyl)-3-azabicyclo[3.1.0]hexane-2,4-dione hydrochloride], the inhibition at 1 µM in series [1] (at 1 μM of the test compound, given where IC50 not determined yet, read-out: percent value of inhibition of USP7 activity) is under 20%.

The record behind these values is patent US12404279B2, “Deubiquitinase inhibitors and methods of use thereof” (Molecure S.A., priority 2021, dated 2025).
